Like-named read-outs stand apart in the source and are kept apart here.
Assays:
AR (human) = AR (human) (Homo sapiens (Human), UniProt P10275, T878A); experiment: Radioligand binding to AR; details: [3H]methyltrienolone, LNCaP cells (cytosol)
Experimental: (§1) Radioligand binding assays were performed with the cell extracts and ligands as detailed below. Complete methodology is contained within the cited publications. Kd values were determined by Non-Specific Incubation Detection Method.
AR (human) (agonist radioligand) LNCaP cells (cytosol)
[^3H]methyltrienolone 1 nM 0.8 nM mibolerone (1 μM) 24 h 4° C. Scintillation counting.
(§2) The results are expressed as a percent of control specific binding measured specific binding*100 control specific binding and as a percent inhibition of control specific binding 100-(measured specific binding*100) control specific binding obtained in the presence of compound.
The IC50 values (concentration causing a half-maximal inhibition of control specific binding) and Hill coefficients (nH) were determined by non-linear regression analysis of the competition curves generated with mean replicate values using Hill equation curve fitting. Y=D+[A−D] 1+(C/C50)nH
wherein Y=specific binding, A=left asymptote of the curve, D=right asymptote of the curve, C=compound concentration, C50=IC50, and nH=slope factor. […]
(§3) The inhibition constants (Ki) were calculated using the Cheng Prusoff equation: Ki=[…]
(§4) Radioligand binding inhibition and affinity calculations were determined using [^3H]-methyltrienolone, [^3H]-dexamethasone and [^3H]-estradiol for AR, GR and ER, respectively. […]

GR (human) = GR (human) (Homo sapiens (Human), UniProt P04150); experiment: Radioligand binding to GR; details: [3H]dexamethasone, IM-9 cells (cytosol)
Chain of GR (human) (P04150 whole entry): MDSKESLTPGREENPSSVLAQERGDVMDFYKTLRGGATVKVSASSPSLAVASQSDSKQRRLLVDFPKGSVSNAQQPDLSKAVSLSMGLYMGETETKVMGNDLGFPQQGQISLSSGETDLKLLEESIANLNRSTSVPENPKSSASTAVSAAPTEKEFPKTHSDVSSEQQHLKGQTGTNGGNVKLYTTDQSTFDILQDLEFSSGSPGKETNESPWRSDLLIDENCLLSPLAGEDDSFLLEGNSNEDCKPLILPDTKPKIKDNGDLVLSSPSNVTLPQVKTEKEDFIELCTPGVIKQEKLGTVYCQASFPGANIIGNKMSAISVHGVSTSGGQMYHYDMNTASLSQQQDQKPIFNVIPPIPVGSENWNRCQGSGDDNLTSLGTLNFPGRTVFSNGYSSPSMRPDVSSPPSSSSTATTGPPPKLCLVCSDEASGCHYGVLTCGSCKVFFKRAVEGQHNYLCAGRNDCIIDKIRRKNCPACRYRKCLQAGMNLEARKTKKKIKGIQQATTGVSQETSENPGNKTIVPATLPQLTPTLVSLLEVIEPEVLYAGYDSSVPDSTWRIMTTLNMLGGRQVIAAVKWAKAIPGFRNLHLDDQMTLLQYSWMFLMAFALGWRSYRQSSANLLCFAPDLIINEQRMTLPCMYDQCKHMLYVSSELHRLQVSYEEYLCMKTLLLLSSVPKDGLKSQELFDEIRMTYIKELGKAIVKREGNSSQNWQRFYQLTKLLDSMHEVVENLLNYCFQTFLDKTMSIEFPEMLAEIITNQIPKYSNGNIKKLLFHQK
Experimental: as §1
GR (human) (agonist radioligand) IM-9 cells (cytosol)
[^3H]dexamethasone 1.5 nM 1.5 nM triamcinolone (10 μM) 6 h 4° C. Scintillation counting (Clark, A. F et al. (1996) Invest. Ophtalmol. Vis. Sci., 37: 805-813).
as §2
The IC50 values (concentration causing a half-maximal inhibition of control specific binding) and Hill coefficients (nH) were determined by non-linear regression analysis of the competition curves generated with mean replicate values using Hill equation curve fitting. Y=D+[A−D] 1+(C/C50)nH […]
as §3, §4

[1] = biological target: wild-type Androgen Receptor (AR-wt) (Homo sapiens (Human), UniProt P10275); experiment: LNCaP-AR-wt ANT reporter assay (antagonist mode); assay type: cell-based
Chain of wild-type Androgen Receptor (AR-wt) (P10275 whole entry): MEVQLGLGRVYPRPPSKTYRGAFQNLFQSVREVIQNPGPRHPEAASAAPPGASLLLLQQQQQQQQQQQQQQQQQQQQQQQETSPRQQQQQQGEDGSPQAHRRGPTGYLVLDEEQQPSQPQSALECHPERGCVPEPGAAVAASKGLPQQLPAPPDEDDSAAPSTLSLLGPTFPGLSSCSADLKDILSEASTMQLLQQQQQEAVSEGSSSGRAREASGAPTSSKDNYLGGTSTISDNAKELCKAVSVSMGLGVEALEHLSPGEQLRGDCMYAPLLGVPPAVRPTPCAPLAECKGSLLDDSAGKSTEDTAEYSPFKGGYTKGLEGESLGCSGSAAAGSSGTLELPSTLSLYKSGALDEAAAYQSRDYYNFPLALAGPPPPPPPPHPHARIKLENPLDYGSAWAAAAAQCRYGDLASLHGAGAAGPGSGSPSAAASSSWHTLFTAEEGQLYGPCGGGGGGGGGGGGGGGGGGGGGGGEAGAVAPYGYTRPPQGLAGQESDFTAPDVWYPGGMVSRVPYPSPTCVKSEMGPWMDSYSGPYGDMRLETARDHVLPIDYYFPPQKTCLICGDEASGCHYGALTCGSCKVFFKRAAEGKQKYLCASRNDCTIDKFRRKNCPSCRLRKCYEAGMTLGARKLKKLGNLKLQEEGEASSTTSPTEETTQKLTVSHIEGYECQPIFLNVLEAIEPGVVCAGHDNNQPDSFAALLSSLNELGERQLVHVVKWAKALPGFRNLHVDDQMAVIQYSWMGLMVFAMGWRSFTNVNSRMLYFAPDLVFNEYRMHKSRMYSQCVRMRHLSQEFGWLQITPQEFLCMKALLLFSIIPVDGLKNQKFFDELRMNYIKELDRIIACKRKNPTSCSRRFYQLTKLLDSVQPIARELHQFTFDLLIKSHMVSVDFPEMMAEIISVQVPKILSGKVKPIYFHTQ

VCaP cells = experiment: Prostate Cancer Cell Viability Assay-VCaP; assay type: cell-based; details: Homo sapiens, 120 h, 5 days, CellTiter-Glo
Experimental: VCaP cells were counted and seeded into black 384-well plates with clear bottoms at a concentration of 125,000 cells per mL in phenol red-free DMEM containing 10% Charcoal Stripped Serum. 16 μL of the suspension was added per well and incubated for 48 h to allow the cells to adhere. After 48 hours, a 12 point serial semilog dilution of each compound was added to the cells in 16 μL at a final concentration of 100 μM to 0.0003 μM. The compounds of Formula (I) were also run in antagonist mode using 30 pM R1881 in which 8 μL of the compound was added to the cells followed by 8 μL of R1881. After 5 days of incubation at 37° C., 16 μL Of CellTiter-Glo (Promega) was added to the cells and the relative luminescence units (RLUs) of each well determined using the Envision. The percent stimulation and % inhibition were determined for each sample and plotted using GraphPad Prism.

LNCaP WT = experiment: LNCaP Proliferation Assay (LNCaP WT); assay type: cell-based; details: Homo sapiens, 96 h, 4 days, CellTiter-Glo, normalized to 0.1 nM R1881 stimulation
Experimental: LNCaP cells were expanded in RPMI 10% FBS in T150 flasks. The cells were dislodged with 0.25% Trypsin, washed in complete media, centrifuged (300 g, 3 min), and the supernatant aspirated. The cells were resuspended in RPMI phenol-red free media with 1% charcoal-stripped serum (CSS) and counted using a ViCELL (Beckman-Coulter). 7500 cells were added to each well of a white optical bottom 384-well plate and incubated for 2 days at 37° C. 5% CO2. Compound dilutions were prepared in RPMI CSS using 50 mM stock solutions and added to the cells either alone (agonist mode) or in combination with 0.1 nM R1881 (antagonist mode). The plates were incubated for 4 days, followed by addition of CellTiter-Glo Luminescent Cell Viability kit reagent (Promega). The plates were placed on a shaker at 3000 rpm for 10 minutes and then read on an EnVision plate reader (Perkin Elmer) using Luminescence assay default settings. The data was analyzed, normalized to 0.1 nM R1881 stimulation, and plotted in GraphPad Prism.

22RV1 cells = experiment: 22RV1 Proliferation Assay; assay type: cell-based; details: Homo sapiens, 120 h
Experimental: 22RV1 were obtained from ATCC and cultured in RPMI 1640 supplemented with 10% FBS. Cells were seeded at a density of 4,500 cells/well into Greiner 384-well, white, optical-bottom plates in RPMI 1640 phenol red-free medium with 1% charcoal stripped FBS and incubated for 2 days at 37° C. The cells were treated with a compound of Formula (I) in 12-point dose-response both in the presence and absence of 0.1 nM R1881 for 5 days. To determine cell viability, CellTiter-Glo reagent (Promega) was added to each well according to the manufacturer's instructions, placed on a shaker at 300 rpm for 10 min, and luminescence recorded using an EnVision plate reader (Perkin Elmer). The data was exported to GraphPad Prism and analyzed using the Four Parameter equation to obtain IC50 values for each compound. Each compound was tested in at least three independent experiments.

LNCaP SRαF876L cells = experiment: Castrate Resistant Prostate Cancer Xenograft Study; assay type: in vivo, mouse; details: castrate SHO mice
Experimental: Castrate six to seven week old male SCID Hairless Outbred mice (SHO, Charles Rivers Laboratories) were used as the host strain for xenograft studies. LNCaP SRαF876L cells were cultured as 3-D spheroids and expanded prior to subcutaneous injection on the flank of the animals (supplied post castration). Briefly, 5 mls of cells in media+5 mls of cultrex were premixed prior to plating of 500 μl=2×10^5 cells per well of a 24-well plate. Plates were incubated @ 37° C. for 30 min before addition of complete media on top and returned to incubator for growth of 3-D colonies. After 7 days, media was removed, plates chilled and contents of each well, 500 μl cultrex and cells, injected into flank of a recipient mouse. Tumor volume (length×width2/2) was monitored weekly. When tumors reached an average volume of ˜200 mm^3, animals were randomized into treatment groups. During the treatment period tumor volume was monitored bi-weekly. At study end, tumor growth inhibition (TGI) was calculated: 100−(Treated/Control*100). At the termination of study tumors were collected and stored for further analyses.

Chain of AR (human) (P10275 whole entry T878A): as the sequence (P10275 whole entry) above, with T878A counted along it

Structure (SMILES): N#Cc1ncc(N2C(=O)C3(CCC3)N(c3ccc(OC4CCNCC4)nc3)C2=S)cc1C(F)(F)F [Cpd 43, 5-[5-oxo-8-[6-(4-piperidyloxy)-3-pyridyl]-7-thioxo-6,8-diazaspiro[3.4]octan-6-yl]-3-(trifluoromethyl)pyridine-2-carbonitrile]
- IC50 (AR (human)): 6.9 nM
- Ki (AR (human); Cheng Prusoff): 3 nM
- IC50 (GR (human)): > 30000 nM
- LNCaP-AR-wt ANT pIC50 ([1]; antagonist mode, pIC50 = −Log10(IC50 in Molar)): 7.27
- LNCaP-AR-wt ANT MAX % Inh ([1]; maximum % inhibition of R1881 control response over the tested concentration range): 101.1%
- IC50 (VCaP cells): 270 nM
- IC50 (LNCaP WT): 435 nM
- IC50 (22RV1 cells; 22RV1, in the absence of 0.1 nM R1881, 5 days, read-out: IC50, agonist mode): 492000 nM
- IC50 (22RV1 cells; 22RV1, in the presence of 0.1 nM R1881, 5 days, read-out: IC50, antagonist mode): 260000 nM
- TGI (LNCaP SRαF876L cells; 30 mg/kg): 91% (n = 9)
- TGI (LNCaP SRαF876L cells; 50 mg/kg): 87% (n = 10)

Source: US10981926B2 (Janssen Pharmaceutica NV, priority 2016, dated 2021)
